Values of other authors in patent US6887210B2, “Devices and methods for obtaining mammary fluid samples for evaluating breast diseases, including cancer” (Atossa Healthcare, Inc., priority 2000, dated 2005).

Conditions: rapid removal from plasma by kidney, liver and mammary gland

Compound: CC[C@H](C)[C@@H]1NC(=O)[C@H](Cc2ccc(O)cc2)NC(=O)[C@@H](N)CSSC[C@@H](C(=O)N2CCC[C@H]2C(=O)N[C@@H](CC(C)C)C(=O)NCC(N)=O)NC(=O)[C@H](CC(N)=O)NC(=O)[C@H](CCC(N)=O)NC1=O [oxytocin]
- half-life of oxytocin in the human bloodstream / circulation: 10 to 15 min
